According to ChEMBL document CHEMBL1697781, “Assessment of the health effects of chemicals in humans: II. Construction of an adverse effects database for QSAR modeling” (Curr Drug Discov Technol, 2004):

Tests used:
Conditions in all cases: human; call rule not given here
Hepatotoxicity [1] = assay: FDA HLAED, liver enzyme composite activity
Hepatotoxicity [2] = assay: FDA HLAED, serum glutamic oxaloacetic transaminase (SGOT) increase
Hepatotoxicity [3] = assay: FDA HLAED, serum glutamic pyruvic transaminase (SGPT) increase
Hepatotoxicity [4] = assay: FDA HLAED, lactate dehydrogenase (LDH) increase
Hepatotoxicity [5] = assay: FDA HLAED, gamma-glutamyl transferase (GGT) increase
Hepatotoxicity [6] = assay: FDA HLAED, alkaline phosphatase increase
For GGT Increase - Index Value in this document: reference of the scale not given here.
For LDH Increase - Index Value in this document: reference of the scale not given here.

Row | Compound | Composite Activity - Active (Hepatotoxicity [1]) | Composite Activity - Marginal (Hepatotoxicity [1]) | Composite Activity - Score (Hepatotoxicity [1]) | SGOT Increase - Activity Score (Hepatotoxicity [2]) | SGOT Increase - Index Value (Hepatotoxicity [2]) | SGOT Increase - Number of Reports (Hepatotoxicity [2]) | SGPT Increase - Activity Score (Hepatotoxicity [3]) | SGPT Increase - Index Value (Hepatotoxicity [3]) | SGPT Increase - Number of Reports (Hepatotoxicity [3]) | LDH Increase - Activity Score (Hepatotoxicity [4]) | LDH Increase - Index Value (Hepatotoxicity [4]) | LDH Increase - Number of Reports (Hepatotoxicity [4]) | GGT Increase - Activity Score (Hepatotoxicity [5]) | GGT Increase - Index Value (Hepatotoxicity [5]) | GGT Increase - Number of Reports (Hepatotoxicity [5]) | Alkaline Phosphatase Increase - Activity Score (Hepatotoxicity [6]) | Alkaline Phosphatase Increase - Index Value (Hepatotoxicity [6]) | Alkaline Phosphatase Increase - Number of Reports (Hepatotoxicity [6]) | other results
1 | CC(C)(C#N)c1cc(Cn2cncn2)cc(C(C)(C)C#N)c1 [ANASTROZOLE] | 2 | 0 | Active | Active | 16.1 | >= 4 | Active | 12.8 | >= 4 | Inactive | 6.4 | < 4 | Inactive | 0 | < 4 | Inactive | 6.4 | < 4 | –
2 | COCCOC(=O)C1=C(C)NC(C)=C(C(=O)OC(C)C)C1c1cccc([N+](=O)[O-])c1 (configuration not stated) [NIMODIPINE] | 5 | 0 | Active | Active | 23.4 | >= 4 | Active | 29.3 | >= 4 | Active | 23.4 | >= 4 | Active | 17.6 | < 4 | Active | 17.6 | < 4 | –
3 | Nc1nc(F)nc2c1ncn2[C@@H]1O[C@H](CO)[C@@H](O)[C@@H]1O [FLUDARABINE] | 4 | 0 | Active | Active | 9.2 | >= 4 | Active | 10.7 | >= 4 | Active | 18.3 | >= 4 | Inactive | 0 | < 4 | Active | 9.2 | >= 4 | –
4 | C[C@H]1C[C@H]2[C@@H]3CCC4=CC(=O)C=C[C@]4(C)[C@@]3(F)[C@@H](O)C[C@]2(C)[C@@]1(O)C(=O)CCl [CLOBETASOL] | 0 | 0 | Inactive | Inactive | 0 | < 4 | Inactive | 0 | < 4 | Inactive | 0 | < 4 | Inactive | 0 | < 4 | Inactive | 0 | < 4 | –
5 | CCOC(=O)C1=C(C)NC(C)=C(C(=O)OC)C1c1cccc(Cl)c1Cl (configuration not stated) [FELODIPINE] | 0 | 0 | Inactive | Inactive | 0.3 | < 4 | Inactive | 0.3 | < 4 | Inactive | 0.3 | < 4 | Inactive | 0.3 | < 4 | Inactive | 0.6 | < 4 | –
6 | Nc1nnc(-c2cccc(Cl)c2Cl)c(N)n1 [LAMOTRIGINE] | 2 | 1 | Active | Active | 4 | >= 4 | Active | 4 | >= 4 | Marginally Active | 3 | >= 4 | Inactive | 2 | < 4 | Inactive | 0.5 | < 4 | –
7 | COc1ccc(C(=O)Nc2ccccc2CCC2CCCCN2C)cc1 (configuration not stated) [ENCAINIDE] | 3 | 1 | Active | Active | 12.4 | >= 4 | Active | 7.7 | >= 4 | Active | 4.1 | >= 4 | Inactive | 0 | < 4 | Marginally Active | 3.6 | >= 4 | –
8 | Clc1ccc(CSC(Cn2ccnc2)c2ccc(Cl)cc2Cl)cc1 (configuration not stated) [SULCONAZOLE] | – | – | – | Inactive | 0 | < 4 | Inactive | 0 | < 4 | Inactive | 0 | < 4 | Inactive | 0 | < 4 | Inactive | 0 | < 4 | Composite Activity - Active (Hepatotoxicity [1]; Liver): 0; Composite Activity - Marginal (Hepatotoxicity [1]; Liver): 0; Composite Activity - Score (Hepatotoxicity [1]; Liver): Inactive
9 | Nc1nc2c(ncn2COCCO)c(=O)[nH]1 [ACYCLOVIR] | 0 | 0 | Inactive | Inactive | 0.9 | >= 4 | Inactive | 0.1 | < 4 | Inactive | 0.1 | < 4 | Inactive | 0 | < 4 | Inactive | 0.9 | >= 4 | –
